Key:
[1] = tested on: Pseudomonas sp. OS29R; experiment: Resistance to As(III); type: cell-based; details: in words
[2] = tested on: A. tumefaciens D10; experiment: Resistance to As(III); type: cell-based, Agrobacterium tumefaciens; details: A. tumefaciens D10 with pSinA
[3] = tested on: Brevundimonas sp. ARS4 (derivative of Brevundimonas sp. OS24R harbouring the plasmid pARS1); experiment: MIC for As(III); type: cell-based; details: derivative with pARS1; LB medium, 48 h, 30° C.
Procedure: (§1) FIG. 8. […] In order to compare the MICs for As(III), cultures were carried out in LB medium, with various concentrations of sodium arsenite (up to 20 mM). After 48 h of cultivation at 30° C., optical density of the cultures (OD600nm measurements of absorbance at 600 nm) was monitored.
(§2) In all the conjugations, transconjugants harbouring the plasmid pARS1 were obtained. To confirm that the newly constructed strains, harbouring the plasmid pARS1, have an increased resistance to arsenic, analysis of MIC—minimal concentration of As(III), inhibiting the growth of the following strains: Agrobacterium tumefaciens ARS3 (derivative of A. tumefaciens LBA288 harbouring the plasmid pARS1), Brevundimonas sp. ARS4 (derivative of Brevundimonas sp. sp. OS24R harbouring the plasmid pARS1), P. aminophilus ARS5 (derivative of P. aminophilus JCM7686 harbouring the plasmid pARS1) was carried out. Wild-type strains were used as the control. Growth experiment and MIC analysis for As(III) was carried out in LB medium, with various concentrations of sodium arsenite (up to 20 mM). After 48 h of cultivation at 30° C., optical density of cultures at OD600nm was monitored. […] MIC for As(III) for A. tumefaciens LBA288 strain was 1 mM, while for its derivative, comprising the plasmid pARS1, 20 mM; for P. aminophilus JCM7686R strain 5 mM, while for its derivative, containing the plasmid pARS1, 20 mM. In turn Brevundimonas sp. OS24R could tolerate the maximum of 10 mM of As(III), and its derivative harbouring the plasmid pARS1 was resistant to 20 mM of As(III). The conducted analyses allowed to confirm that the derivative of the plasmid pSinA, comprising the ars module (sequence from 43229 to 50772) can be used for constructing strains with increased resistance to arsenic.

[4] = tested on: Agrobacterium tumefaciens ARS3 (derivative of A. tumefaciens LBA288 harbouring the plasmid pARS1); experiment: MIC for As(III); type: cell-based; details: derivative with pARS1, LB medium, 48 h, 30° C.
Procedure: as §1, §2

[5] = tested on: P. aminophilus ARS5 (derivative of P. aminophilus JCM7686 harbouring the plasmid pARS1); experiment: MIC for As(III); type: cell-based; details: Paracoccus aminophilus, derivative with pARS1, LB medium, 48 h, 30° C.
Procedure: as §1, §2

[6] = tested on: Brevundimonas sp. OS24R; experiment: As(III) (sodium arsenite) growth inhibition / MIC; type: cell-based
Procedure: as §1, §2

[7] = tested on: Paracoccus aminophilus JCM7686; experiment: As(III) (sodium arsenite) growth inhibition / MIC; type: cell-based
Procedure: as §1, §2

[8] = tested on: Agrobacterium tumefaciens LBA288; experiment: As(III) (sodium arsenite) growth inhibition / MIC; type: cell-based
Procedure: as §1, §2

[9] = tested on: Sinorhizobium sp. M14; experiment: Resistance to As(III); type: cell-based
[10] = tested on: Paracoccus aminovorans JCM7685; experiment: Sodium arsenite growth inhibition; type: cell-based; details: P. aminovorans JCM7685
[11] = tested on: Stenotrophomonas sp. LM24R; experiment: Sodium arsenite growth inhibition; type: cell-based
[12] = tested on: Paracoccus alcaliphilus JCM7364R; experiment: Sodium arsenite growth inhibition; type: cell-based; details: P. alcaliphilus JCM7364R

`O=[As]O` [sodium arsenite] was tested, and the “resistance to As (III)” value [1] was “resistant”, the “resistant to As (III) (up to)” value [2] was “up to 15 mM” and the “As(III) concentration the strain is resistant to” value [3] was 20 mM. For the same compound, the MIC [4] was 20 mM, the MIC [5] was 20 mM and the “concentration of sodium arsenite that inhibits growth” value ([6]; Brevundimonas sp. OS24R) was 10 mM. The “resistance to As (III)” value ([6]; Brevundimonas sp. OS24R, in words) was “resistant”, the “maximum of As(III) tolerated” value ([6]; LB medium, 48 h, 30° C., OD600nm) was no more than 10 mM and the “concentration of sodium arsenite that inhibits growth” value ([7]; P. aminophilus JCM7686) was 5 mM. For the same compound, the MIC ([7]; Paracoccus aminophilus, JCM7686, 48 h, read-out: MIC for As(III)) was 5 mM, the “concentration of sodium arsenite that inhibits growth” value ([8]; A. tumefaciens LBA288) was 1 mM and the MIC ([8]; Agrobacterium tumefaciens, LBA288, LB medium, 48 h, 30° C., OD600nm) was 1 mM. For the same compound, the “resistant to As (III) (up to)” value [9] was “up to 20 mM”, the “concentration of sodium arsenite that inhibits growth” value [10] was 1 mM and the “concentration of sodium arsenite that inhibits growth” value [11] was 1 mM. The “concentration of sodium arsenite that inhibits growth” value [12] was 1 mM.
